Test results as given in patent US6162799A, “Pesticidal compounds” (BTG International Limited, priority 1995, dated 2000).
≈ marks a conversion by molar mass, not a printed value.

Assays:
Assay type in all cases: in vivo
Tetranychus urticae = assay: Immersion test on mites (TU), susceptible strain GSS; settings: 72 h, read-out: TU (GSS) (LC50)
Procedure: (§1) Pesticidal activity was assessed against houseflies, mustard beetles, mites and whitefly using the following methods.
Mites (TU) (Tetranychus urticae)
25 adult female mites were immersed in 35 μl of a solution of the test compound in a 1:4 acetone-water mixture for 30 seconds. The treated insects were maintained at 21°±2° C. and kill was assessed 72 hours after treatment. […] Three replicates of 25 mites each were used at each dose rate and 5 or 6 dose rates were used per compound under test. LC50 values were calculated in ppm of the solution of the test compound per insect. The test was carried out using a susceptible strain of mites (GSS) supplied by Schering, AG, Berlin.
(§2) The values given are LD50 (μg/insect) or LC50 (ppm solution of test compound) unless otherwise specified.

Aphis gossypiae = assay: Aphicidal activity, aphid-dip; settings: strain 81-171B, read-out: Aphid-dip result, % kill A.G. 81-171B
Procedure: (§3) Activity against resistant (R) and susceptible (S) strains of aphid (Myzus persicae) and Aphis gossypiae was assessed using the following two methods.
(§4) Entrapment rings of fluon were painted halfway up the inside of 4 cm lengths of glass tubing (1.5 cm diameter), and squares of insect-proof gauze were attached to one end of each tube by elastic bands. Fifteen apterous adults were then gently transferred into the tubes using a sable-hair brush, and the tube sealed with a second gauze square.
(§5) Tubes containing aphids were dipped into insecticide solutions for 10 seconds, dried on blotting paper, and then inverted and tapped to cause treated aphids to fall to the unimmersed end of each tube. Handling mortality (usually zero or very slight) was scored after 1 hour, when aphids were transferred onto chinese cabbage leaf-discs (35 mm diameter) on an agar bed (25 mm in depth) in disposible plastic containers (30 mm high) and confined by applying a ring of fluon to the exposed lip of the container. Containers were stored upright, without lids, in a constant environment facility maintained at 25° C. under continuous room lighting. Mortality was assessed at 24, 48 and 72 hours. Two replicates of 15 aphids each were used at each dose rate and 5 or 6 dose rates were used per compound under test.
(§6) The values given are % mortality corrected for control data. The control comprised the test solution without active ingredient.

Myzus persicae [1] = assay: Aphicidal activity, aphid-dip; settings: susceptible strain USIL, read-out: Aphid-dip result, % kill M.P. USIL
Procedure: as §3, §4, §5
(§7) The test was carried out using a susceptible strain of aphids (US1L) collected in the field in East Anglia, UK and an extremely resistant strain of aphids (794Jz) (R^3 esterase, sensitive ACHE) collected from glasshouses in the UK.
as §6

Bemisia tabaci = assay: Film/vial test on whitefly (BT), susceptible strain SUD-S; settings: 48 h; for LC50: read-out: BT (SUD-S) (LC50); for mortality at 100 ppm: read-out: BT (SUD-S) kill at 100 ppm
Procedure: as §1
Whitefly (BT) (Bemisia tabaci)
Acetone solutions (0.100 ml) of the test compounds were placed in 10 ml glass vials and evaporated with rotation to deposit a film of the compound. Thirty adult whiteflies were placed inside the vial, then after 60 minutes, the treated insects were transferred onto untreated cotton leaf discs which were kept moist on a bed of agar gel. The temperature was maintained at 25° C. and mortality assessed after 48 hours. Three replicates were used at each of 5 to 7 dose levels per compound. LC50 values were calculated by using a computer software package ("Polo-PC" available from LeOra Software, Berkeley, Calif.). (See M. R. Cahill and B. Hackett in Proceedings Brighton Crop Protection Conference, 1992). The test was carried out using a susceptible strain of whitefly (SUD-S) which was collected in Sudan in 1978 from cotton.
as §2

Myzus persicae [2] = assay: Aphicidal activity, topical application; settings: 72 h
Procedure: as §3
Batches of 10-15 apterous adults were removed from stock cultures and placed on leaf discs (35 mm in diameter) cut from chinese cabbage and held on an agar bed (25 mm deep) in disposable plastic containers (30 mm high). Using a Burkhard micro-applicator aphids were dosed individually with a 0.25 μm droplet of chemical diluted to the required concentration in acetone. control insects were dosed with acetone only. Mortality and other effects were scored at 24 hour intervals up to and including 72 hour post-treatment, the end-point to which the results relate.
as §7, §6

Musca domestica = assay: Topical test on houseflies (MD); settings: houseflies, topical on thorax; kill assessed 24 and 48 h
Procedure: as §1
Houseflies (MD) (Musca domestica)
Female flies were treated on the thorax with a one microliter drop of test compound dissolved in acetone. Two replicates of 15 flies were used at each dose rate and 6 dose rates were used per compound under test. After treatment, the flies were maintained at a temperature of 20°±1° C. and kill was assessed 24 and 48 hours after treatment. LD50 values were calculated in micrograms of test compound per fly (see Sawicki et al., Bulletin of the World Health Organisation, 35, 893 (1966) and Sawicki et al., Entomologia and Exp. Appli 10, 253, (1967).
as §2

Phaedon cochleariae Fab = assay: Topical test on mustard beetles (PC); settings: mustard beetles, topical, 48 h
Procedure: as §1
Mustard beetles (PC) (Phaedon cochleariae Fab)
A one microliter drop of an acetone solution of the test compound was applied ventrally to adult mustard beetles using a micro drop applicator. The treated insects were maintained for 48 hours after which time kill was assessed. Two replicates each of 20 to 25 mustard beetles were used at each dose level and 5 dose levels were treated comparably. LD50 values were calculated as for houseflies.
as §2

[3] = susceptible strain USIL, read-out: Topical aphid results, % kill M.P. USIL
[4] = resistant strain 794JZ, read-out: Topical aphid results, % kill M.P. 794JZ

Row | Structure (SMILES) | LC50 (Tetranychus urticae) [µg/mL] | LC50 (Bemisia tabaci) [µg/mL] | mortality at 100 ppm (Myzus persicae [2]; [3]) [%] | further results
1 | C[Si](C)(C)CCCCCCCC1=C(O)C(=O)c2ccccc2C1=O [Example 10] | 0.31 (≈ 0.9 µM) | 8.2 (≈ 23.8 µM) | 100 | mortality at 100 ppm (Aphis gossypiae): 100%; mortality at 100 ppm (Myzus persicae [1]): 100%; MD (LD50) (Musca domestica): 1.7 μg/insect
2 | C[Si](C)(C)CCCCCCCCC1=C(O)C(=O)c2ccccc2C1=O [Example 11] | 0.51 (≈ 1.42 µM) | 14.6 (≈ 40.7 µM) | 100 | mortality at 100 ppm (Aphis gossypiae): 100%; mortality at 100 ppm (Myzus persicae [1]): 100%; mortality at 100 ppm (Myzus persicae [2]; [4]): 95%; MD (LD50) (Musca domestica): 2.3 μg/insect
3 | C[Si](C)(C)CCCCCCCCCCC1=C(O)C(=O)c2ccccc2C1=O [Example 13] | 2.2 (≈ 5.69 µM) | – | 90 | mortality at 100 ppm (Aphis gossypiae): 83%; mortality at 100 ppm (Myzus persicae [1]): 90%; MD (LD50) (Musca domestica): 9.9 μg/insect
4 | CC[Si](C)(C)CCCCCCCCC1=C(O)C(=O)c2ccccc2C1=O [Example 14, 2-hydroxy-3(8-(dimethylethylsilyl)octyl)-1,4-naphthoquinone] | – | 15 (≈ 40.3 µM) | 74 | –
5 | CC[Si](CC)(CC)CCCCCCCCC1=C(O)C(=O)c2ccccc2C1=O [Example 15] | 5.2 (≈ 13 µM) | 22 (≈ 54.9 µM) | 58 | –
6 | CCC[Si](CCC)(CCC)CCCCCCCCC1=C(O)C(=O)c2ccccc2C1=O [Example 16] | – | – | 24 | mortality at 100 ppm (Bemisia tabaci): 79%; PC (LD50) (Phaedon cochleariae Fab): > 20 μg/insect
7 | CCC[Si](C)(C)CCCCCCCCC1=C(O)C(=O)c2ccccc2C1=O [Example 17] | 8.4 (≈ 21.7 µM) | 13 (≈ 33.6 µM) | 88 | –
8 | C[Si]1(CCCCCCCCC2=C(O)C(=O)c3ccccc3C2=O)CCCC1 [Example 18, 2-Hydroxy-3-(8-(1-methyl-(tetramethylenesilyl))octyl)-1,4-naphthoquinone] | 3.6 (≈ 9.36 µM) | – | 59 | –
9 | C[Si]1(CCCCCCCCC2=C(O)C(=O)c3ccccc3C2=O)CCCCC1 [Example 19, 2-hydroxy-3-(8-(1-methyl-(pentamethylenesilyl))octyl)-1,4-naphthoquinone] | – | – | – | mortality at 100 ppm (Bemisia tabaci): 13%
10 | C[Si](C)(C)CC=CC1=C(O)C(=O)c2ccccc2C1=O [Example 20, 2-hydroxy-3-(3-trimethylsilyl-1-propenyl)-1,4-naphthoquinone] | 21 (≈ 73.3 µM) | 30 (≈ 105 µM) | – | PC (LD50) (Phaedon cochleariae Fab): > 20 μg/insect
11 | CC(=O)OC1=C(CCCCCCCCC[Si](C)(C)C)C(=O)c2ccccc2C1=O [Example 21, 2-ethanoyloxy-3-(9-trimethylsilylnonyl)-1,4-naphthoquinone] | 2 (≈ 4.82 µM) | < 100 | – | mortality at 100 ppm (Myzus persicae [1]): 66%; mortality at 100 ppm (Myzus persicae [2]; [4]): 89%; mortality at 125 ppm (Myzus persicae [2]; susceptible strain USIL, 125 ppm, read-out: Topical aphid results, % kill M.P. USIL): 66%
12 | CCC(=O)OC1=C(CCCCCCCCC[Si](C)(C)C)C(=O)c2ccccc2C1=O [Example 22, 2-propanoyloxy-3-(9-trimethylsilylnonyl)-1,4-naphthoquinone] | – | – | 37 | –
13 | C=COC(=O)OC1=C(CCCCCCCCC[Si](C)(C)C)C(=O)c2ccccc2C1=O [Example 23, 2-vinylcarbonato-3-(9-trimethylsilylnonyl)-1,4-naphthoquinone] | – | – | 63 | mortality at 100 ppm (Bemisia tabaci): 32%
14 | CCOCOC1=C(CCCCCCCCC[Si](C)(C)C)C(=O)c2ccccc2C1=O [Example 24, 2-ethoxymethoxy-3-(9-trimethylsilylnonyl)-1,4-naphthoquinone] | – | – | 16 | mortality at 100 ppm (Bemisia tabaci): 19%
